This note sets out measurements from ChEMBL document CHEMBL4725395, “Lipoic acid modified antimicrobial peptide with enhanced antimicrobial properties” (Bioorg Med Chem, 2020).

Values after ≈ are worked out from the molar mass of the structure shown. Active and inactive are the calls of the source. No cut-off for these calls is given here. Residues, ends and D or L forms follow the SMILES beside them. ξ: configuration not given here. *: point of attachment. Lipoyl(6ξ) = O=C(CCCCC1CCSS1)*

The subject of series [1] is Pseudomonas aeruginosa. Briefly: Antimicrobial activity against Pseudomonas aeruginosa ATCC 27853 by measuring turbidity after 16 hrs. Format: functional.
Series [2] deals with Staphylococcus aureus. Briefly: Antimicrobial activity against Staphylococcus aureus ATCC 29213 assessed as inhibition of visible growth incubated for 24 hrs. The format is functional.
A short description of series [3]: Cytotoxicity against mouse L929 cells assessed as cell viability at 32 ug/ml after 24 hrs by MTT assay relative to control. Format: cell-based. The settings on record: at 32 µg/mL, read-out: Activity. Background: Tetrazolium assays rely on reduction of a dye to a coloured formazan, in cell work by metabolically active cells.
Series [4] relates to Staphylococcus aureus. Briefly: Antimicrobial activity against methicillin-resistant Staphylococcus aureus ATCC 43300 by measuring turbidity after 16 hrs. The format is functional.
The subject of series [5] is Staphylococcus aureus. Briefly: Antimicrobial activity against Staphylococcus aureus ATCC 29213 by measuring turbidity at 540 nm OD after 16 hrs. The format is functional.
Series [6] concerns Staphylococcus aureus. Briefly: Bactericidal activity against planktonic phase of methicillin-resistant Staphylococcus aureus ATCC 43300 assessed as log reduction in bacterial colony forming units at 8 ug/ml incubated for 15 mins followed by plating on agar plate and measured after overnight incubation by time-kill kinetic assay relative to control. Format: functional. Set-up: scale not given: the % may be the effect or the level left. The settings on record: dose 8 µg/ml, 0.25 h.

Series [7] relates to Staphylococcus aureus. Briefly: Antibiofilm activity against Staphylococcus aureus ATCC 29213 assessed as inhibition of biofilm formation at 64 ug/ml after 48 hrs by crystal violet staining based assay relative to control. Conditions: dose 64 µg/ml. Set-up: scale not given: the % may be the effect or the level left. Format: functional.
Series [8] concerns Escherichia coli. Briefly: Antimicrobial activity against Escherichia coli ATCC 25922 by measuring turbidity after 16 hrs. The format is functional.
Series [9] relates to Cell membrane. Briefly: Induction of cytoplasmic membrane depolarization in Kcl - treated Escherichia coli DC2 assessed as increase in fluorescence intensity for a period of 600 sec by diSC3-5 dye based fluorescence microplate reader assay.
A short description of series [10]: Cytotoxicity against mouse L929 cells assessed as cell viability at 64 ug/ml after 24 hrs by MTT assay relative to control. The settings on record: at 64 µg/mL, read-out: Activity. Format: cell-based.
The subject of series [11] is Staphylococcus aureus. Briefly: Antimicrobial activity against methicillin-resistant Staphylococcus aureus ATCC 43300 assessed as inhibition of visible growth incubated for 24 hrs. The format is functional.
Series [12] in a line: Hemolytic activity against Erythrocyte (unknown origin) at 16 ug/ml measured after 4 hrs by microplate reader analysis relative to control. The format is ADME, cell-based. Conditions: human, erythrocytes, at 16 µg/mL, read-out: Activity.
Series [13] concerns Cell membrane. Briefly: Induction of outer membrane permeabilization in Escherichia coli ATCC 25922 assessed as increase in fluorescence intensity at 4 ug/ml after 100 sec by NPN-dye based assay. Format: subcellular. The settings on record: dose 4.0 µg/ml.
Series [14] has as its system Staphylococcus aureus. Briefly: Antibiofilm activity against 48 hrs pre-formed biofilm of Staphylococcus aureus ATCC 29213 assessed as reduction in biofilm viability at 64 ug/ml after 5 hrs relative to control. Format: functional. Conditions: dose 64 µg/ml.
Series [15] deals with Staphylococcus aureus. Briefly: Bactericidal activity against planktonic phase of Staphylococcus aureus ATCC 29213 assessed as log reduction in bacterial colony forming units at 2 ug/ml incubated for 15 mins followed by plating on agar plate and measured after overnight incubation by time-kill kinetic assay relative to control. Format: functional. Also noted: scale not given: the % may be the effect or the level left. The settings on record: dose 2 µg/ml, 0.25 h.

The test system of series [16] is Pseudomonas aeruginosa. Briefly: Antimicrobial activity against Pseudomonas aeruginosa ATCC 27853 assessed as inhibition of visible growth incubated for 24 hrs. Format: functional.
In series [17] the test system is Staphylococcus aureus. Briefly: Antibiofilm activity against 48 hrs preformed biofilm of methicillin resistant Staphylococcus aureus ATCC 43300 assessed as reduction in biofilm viability at 128 ug/ml after 5 hrs relative to control. Format: functional. The settings on record: dose 128 µg/ml.
Series [18] concerns Staphylococcus epidermidis. Briefly: Antimicrobial activity against Staphylococcus epidermidis ATCC 14990 by measuring turbidity after 16 hrs. Format: functional.
The subject of series [19] is Staphylococcus aureus. Briefly: Antibiofilm activity against methicillin-resistant Staphylococcus aureus ATCC 43300 assessed as dead bacteria at 64 ug/ml incubated for 5 hrs by live/dead staining based confocal laser scanning microscopy. The settings on record: dose 64.0 µg/ml. Format: functional, organism-based.
For series [20], the system named is Staphylococcus aureus. Briefly: Antibiofilm activity against methicillin resistant Staphylococcus aureus ATCC 43300 assessed as inhibition of biofilm formation at 64 ug/ml after 48 hrs by crystal violet staining based assay relative to control. Conditions: dose 64 µg/ml. Set-up: scale not given: the % may be the effect or the level left. The format is functional.

The test system of series [21] is Cell membrane. Briefly: Induction of cell membrane damage in methicillin-resistant Staphylococcus aureus ATCC 43300 assessed as leakage of cellular components at 16 ug/ml after 30 mins by transmission electron microscopy. The format is subcellular. The settings on record: dose 16.0 µg/ml.
The subject of series [22] is Escherichia coli. Briefly: Antimicrobial activity against Escherichia coli ATCC 25922 assessed as inhibition of visible growth incubated for 24 hrs. Format: functional.
The test system of series [23] is Staphylococcus aureus. Briefly: Antibiofilm activity against Staphylococcus aureus ATCC 29213 assessed as dead bacteria at 64 ug/ml incubated for 5 hrs by live/dead staining based confocal laser scanning microscopy. The format is functional, organism-based. The settings on record: dose 64.0 µg/ml.
Series [24] can be described thus: Cytotoxicity against mouse L929 cells assessed as cell viability at 8 or 16 ug/ml after 24 hrs by MTT assay relative to control. The format is cell-based. Conditions: dose 8-16 µg/ml, read-out: Activity.
Series [25] is described as follows: Hemolytic activity against Erythrocyte (unknown origin) at 4 ug/ml measured after 4 hrs by microplate reader analysis relative to control. The format is ADME, cell-based. Conditions: human, erythrocytes, at 4 µg/mL, read-out: Activity.
The test system of series [26] is Staphylococcus epidermidis. Briefly: Antimicrobial activity against Staphylococcus epidermidis ATCC 14990 assessed as inhibition of visible growth incubated for 24 hrs. Format: functional.
For series [27], the system named is Cell membrane. Briefly: Induction of cell membrane damage in Escherichia coli ATCC 25922 assessed as leakage of cellular components at 16 ug/ml after 30 mins by transmission electron microscopy. Format: subcellular. The settings on record: dose 16.0 µg/ml.
Series [28] in a line: Cytotoxicity against mouse L929 cells assessed as cell viability at 128 ug/ml after 24 hrs by MTT assay relative to control. Format: cell-based. The settings on record: at 128 µg/mL, read-out: Activity.

On to `CC[C@H](C)[C@H](NC(=O)[C@H](CCCNC(=N)N)NC(=O)CCCCC1CCSS1)C(=O)N[C@@H](Cc1c[nH]c2ccccc12)C(=O)N[C@H](C(=O)N[C@H](C(=O)N[C@@H](Cc1c[nH]c2ccccc12)C(=O)N[C@@H](CCCNC(=N)N)C(=O)N[C@@H](CCCNC(=N)N)C(N)=O)[C@@H](C)CC)C(C)C` (some centres not stated) ({Lipoyl(6ξ)}-RIWVIWRR-NH2), for which the minimum inhibitory concentration (MIC) in [1] came out at 8 µg/mL (≈ 5.83 µM); in series [4], 4 µg/mL (≈ 2.92 µM); in series [5] it was 1 µg/mL (≈ 0.729 µM); in [8], 8 µg/mL (≈ 5.83 µM); in series [18] it was 8 µg/mL (≈ 5.83 µM). The MBC was 2 µg/mL (≈ 1.46 µM) in series [2]; 8 µg/mL (≈ 5.83 µM) in series [11]; 8 µg/mL (≈ 5.83 µM) in [16]; 8 µg/mL (≈ 5.83 µM) in [22]; 8 µg/mL (≈ 5.83 µM) in series [26]. The viability at 24 h, 32 ug/ml in [3] came out at 89.4%. Besides, the Activity in [6] was 99%; in [7], 12%; in series [9], “Dose-dependent effect”; in series [14] it was 60%; in series [15] it was 99%; in series [17], 36.4%. The Activity in [20] stood at 25.6%. In series [10], the viability at 24 h, 64 ug/ml is 84.9%. The hemolysis at 4 h, 16 ug/ml in series [12] was 4.58%. Besides, the outcome in [13], in series [19], in [21], in series [23] and in [27] was Active. In addition, the viability at 24 h in series [24] is 100%. For the same compound, in [25], the hemolysis at 4 h, 4 ug/ml came to 0.97%. In [28], the viability at 24 h, 128 ug/ml is 80.1%.

On to H-RIWVIWRR-NH2, for which the MIC turned out to be 4 µg/mL in [1]; 8 µg/mL in series [4]; 2 µg/mL in series [5]; 4 µg/mL in [8]; 4 µg/mL in series [18]. The MBC in series [2] stood at 4 µg/mL; in series [11] it was 16 µg/mL; in [16] it was 4 µg/mL; in series [22], 4 µg/mL; in [26], 4 µg/mL. Further, the Activity entry in series [9] is “Dose-dependent effect”; in series [14], 45%; in [17], 40.2%. In addition, in series [12], the hemolysis at 4 h, 16 ug/ml stood at 3.47%. The result in [21] and in series [27] was Active. For the same compound, the viability at 24 h in series [24] worked out at 100%. Further, the hemolysis at 4 h, 4 ug/ml in [25] was found to be 1.21%. Besides, in series [28], the viability at 24 h, 128 ug/ml is 85.7%.

The MIC is the lowest concentration that inhibits growth of the organism. The MBC is the lowest tested concentration that kills the bacteria rather than only halting them.
